This is an account of results in patent US7022737B2, “Manipulating nitrosative stress to kill pathologic microbes, pathologic helminths and pathologically proliferating cells or to upregulate nitrosative stress defenses” (Duke University, priority 1996, dated 2006).

In one assay the test system is Giardia lamblia. Put plainly: Patient with Giardia lamblia infection. The assay is classed as in vivo. The settings on record: 4 mmol/kg four times a day p.o. with metronidazole 500 mg twice a day p.o. for five days.
The test system of another assay is small cell lung cancer. Put plainly: Patients with small cell lung cancer. The following applies: cyclophosphamide, NO-substituted doxirubicin IV and BSO 4 mmol/kg IV four times/day; chest X-ray in two months. It is filed as in vivo. As for the experimental part:
A person with a 80 pack-year history of smoking presents with hemoptosis and weight loss. […] The patient is given a combination therapy of cyclophosphamide (750 mg/m^2) plus NO-substituted doxirubicin (40 mg/m^2) and vincristine (2 mg) (all administered i.v.). The therapeutic regimen is repeated once at three weeks.
A person with a 20 pack/year history of smoking presents with cough. […] The patient receives cyclophosphamide (750 mg/m^2 and NO-substituted doxirubicin (administered IV)). The patient also receives L-buthionine-S-sulfoximine, i.e., BSO (4 mmol/kg IV four times/day).

Assay [1] relates to restenosis. Put plainly: Patients with coronary stenosis treated to prevent restenosis. The assay is classed as in vivo. The text has this:
BSO therapy is continued for one week.
A person with blue eyes and gray hair presents with chest pain. […] The patient undergoes balloon angioplasty and placement of a Palmaz-Schatz stent, which is P^32-implanted and coated with a cyclodextran polymer to which BSO is attached by an ester linkage.
A patient similar to the one described above undergoes balloon angioplasty and placement of a Palmaz-Schatz stent which is coated with cyclodextran polymer to which ethyl maleate is attached by an ester linkage. […]
A person with restenosis six months post angioplasty has a Palmaz-Schatz stent placed. The stent is coated with a porous polymer containing 10% of the siderophore ferrioxamine B and 0.1% each of interleukin-1 and interferon-gamma. The latter agents induce the local expression of the inducible isoform of nitric oxide synthase. […]

Assay [2] relates to benign prostatic hypertrophy. Put plainly: Patients with benign prostatic hypertrophy. It is filed as in vivo. The text has this:
A person presents with a history of urinary hesitancy and multiple awakenings during the night. They are given a diagnosis of benign prostatic hypertrophy. Under stereotactic guidance, the patient's enlarged prostate gland is implanted with several porus polymer pellets designed to slowly release L-buthionine-S-sulfoximine (1 μmol/hr) and S-nitrosocysteine (1 μmol/hr). […] They then have nearly normal urine flow and usually wakes no more than once per night.
A similar patient with benign prostatic hypertrophy and very marked enlargement of their prostate is treated with NO-substituted finasteride (NO-substituted Proscar; 5 mg/day). NO-substitution is accomplished by replacement of the tert-butyl amine moiety of finasteride with S-nitroso-β-thio-tert-butyl amine.
A person with benign prostatic hypertrophy is treated with Finisteride (Proscar: 5 mg/day) and oral buthionine-S-sulfoximine at a dose of 10 mmol/kg four time/day.

Another assay has as its system herpes labialis. Put plainly: Patient with recurrent herpes labialis. It is filed as in vivo. The following applies: in Denavir (pencicyclovir cream), topically every two hours while awake. An excerpt: A homosexually active person developed a recurrent herpes labialis (cold sore) on their lips and face. Therapy with Denavir (pencicyclovir cream) that contains buthionine sulfoximine is applied topically every two hours while awake.

The test system of assay [3] is metastatic malignant melanoma. Put plainly: Patient with metastatic malignant melanoma. The following applies: L-buthionine-S-sulfoximine 2 mmol/kg p.o. every 4 hours and hydroxyurea 10 mg/kg p.o., one week. The assay is classed as in vivo. The method, then: A person […] and a history of surgery five years previously to remove malignant melanotic nevi from their upper back and chest is found to have blood in their stool on routine physical examination. […] The patient is administered L-buthionine-S-sulfoximine (2 mmol/kg) p.o. every 4 hours for one week and is given 10 mg/kg of hydroxyurea p.o. 1 hour after every third dose of L-buthionine-S-sulfoximine. […] The patient shown no further evidence of metastases during a six month follow-up.

A further assay deals with trypanosomes. Put plainly: Patient with trypanosome infection. It is filed as in vivo. The settings on record: L-buthionine-S-sulfoximine 3 mmol/kg p.o. every 4 hours and S-nitrosoglutathione iv 10 mg/kg every 8 hours, one week. As for the experimental part:
A person presents with high fever, moderate lymphadenopathy and reports that they have lost 40 pounds in the last month, two months after returning from a safari in sub-Saharan Africa. On questioning, the patient reports having developed during the safari an ulcer on their forearm two days following a bite by a fly. […] The patient is hospitalized and given L-buthionine-S-sulfoximine at a dose of 3 mmol/kg p.o. every 4 hours for one week. In addition, the patient receives S-nitrosoglutathione iv at a dose of 10 mg/kg every 8 hours for one week.

The target of assay [4] is T1, gamma-glutamylcysteinyl synthetase (gamma-GCS) (Rattus norvegicus, UniProt P19468).
T1 sequence (P19468 1-637): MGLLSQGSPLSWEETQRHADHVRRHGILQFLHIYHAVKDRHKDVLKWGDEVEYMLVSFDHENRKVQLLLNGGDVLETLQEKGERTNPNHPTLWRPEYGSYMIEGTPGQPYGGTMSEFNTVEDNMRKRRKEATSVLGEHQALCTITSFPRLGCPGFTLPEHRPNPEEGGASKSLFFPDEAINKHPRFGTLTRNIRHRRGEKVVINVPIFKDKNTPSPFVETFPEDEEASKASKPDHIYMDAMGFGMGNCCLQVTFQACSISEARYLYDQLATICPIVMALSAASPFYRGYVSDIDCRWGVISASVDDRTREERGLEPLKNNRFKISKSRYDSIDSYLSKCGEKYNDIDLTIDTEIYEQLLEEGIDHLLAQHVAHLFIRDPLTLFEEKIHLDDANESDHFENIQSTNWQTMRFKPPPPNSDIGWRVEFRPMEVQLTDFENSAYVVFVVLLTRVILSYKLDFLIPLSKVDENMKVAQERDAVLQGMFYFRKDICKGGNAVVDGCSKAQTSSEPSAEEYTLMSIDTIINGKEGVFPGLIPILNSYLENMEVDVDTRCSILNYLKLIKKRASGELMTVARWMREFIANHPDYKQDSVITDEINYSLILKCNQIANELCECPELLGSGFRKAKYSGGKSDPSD
T1 sequence (P48508 1-274 partner): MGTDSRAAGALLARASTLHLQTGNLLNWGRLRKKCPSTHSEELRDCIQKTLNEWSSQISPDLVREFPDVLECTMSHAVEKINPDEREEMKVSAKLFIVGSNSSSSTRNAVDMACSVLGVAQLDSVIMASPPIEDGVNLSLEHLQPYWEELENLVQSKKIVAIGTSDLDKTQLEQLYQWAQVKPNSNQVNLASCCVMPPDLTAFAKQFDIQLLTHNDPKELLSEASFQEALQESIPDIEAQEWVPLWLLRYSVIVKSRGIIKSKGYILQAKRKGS
The following applies: mammalian systems, literature; cited from earlier work.

In assay [5] the test system is restenosis. Put plainly: Patients with coronary stenosis treated to prevent restenosis. The assay is classed as in vivo. The settings on record: BSO 4 mmol/kg four times a day intracoronary for one week, 32P-implanted Palmaz-Schatz stent.

With `CCCCS(=N)(=O)CC[C@H](N)C(=O)O` (stereo partly drawn) [L-buthionine-S-sulfoximine], the clinical outcome in the assay with Giardia lamblia is given as “stool culture becomes negative for Giardia after five days”; with small cell lung cancer it was “decrease in size of the mass”; with restenosis [1] (P^32-implanted stent coated with cyclodextran polymer with BSO attached by ester linkage), “clinical restenosis does not occur”; in the assay on restenosis [1] (verapamil 80 mg three times a day p.o., BSO 4 mmol/kg i.v. four times a day, NO-releasing polymer stent), “repeat angiogram at six months shows no restenosis”; in [2] (Finisteride 5 mg/day and oral buthionine-S-sulfoximine 10 mmol/kg four time/day), “symptoms of hesitancy improve significantly over two months”; in assay [2] (prostate-implanted polymer pellets releasing each agent at 1 μmol/hr), “symptoms improve over a period of three weeks”. Besides, the clinical outcome with trypanosomes is listed as “blood smear is free of trypanosomes”; in the assay with restenosis [5], “repeat of their angiogram shows no restenosis”. The “mean duration of the lesion versus Denavir without BSO” value with herpes labialis is given as “half the time shorter”. The “reduction in size of metastatic tumor” value in assay [3] was found to be 30%. Further, in assay [4], the “inhibition of gamma-GCS” value is given as “most effectively inhibited”.
